# In patent US11426397B2, “Piperidinyl- and piperazinyl-substituted heteroaromatic carboxamides as modulators of GPR6” (TAKEDA PHARMACEUTICAL COMPANY LIMITED, priority 2017, dated 2022):
# Target: T1, GPR6 receptor expressed in CHO-K1 cells (Homo sapiens, UniProt P46095)
# T1 construct: expressed in transfected cells
# Assay: In vitro inhibition of cAMP (EC50), cell-based HTRF cAMP assay
# Details: inhibition of constitutive cAMP activity of GPR6 in CHO-K1 cells
# Method in brief: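 Cellular cAMP measured by Lance Ultra HTRF (Eu-cAMP tracer, ULight anti-cAMP), with EC50 fitted by four-parameter logistic. Test compounds sat on cells 45 min, 37 °C, in pH 7.4 Ringer's with 300 μM IBMX and 0.5% BSA; GPR6 in CHO-K1 induced beforehand by doxycycline, 2 μg/mL, 20 h.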
# T1 sequence (P46095 whole entry): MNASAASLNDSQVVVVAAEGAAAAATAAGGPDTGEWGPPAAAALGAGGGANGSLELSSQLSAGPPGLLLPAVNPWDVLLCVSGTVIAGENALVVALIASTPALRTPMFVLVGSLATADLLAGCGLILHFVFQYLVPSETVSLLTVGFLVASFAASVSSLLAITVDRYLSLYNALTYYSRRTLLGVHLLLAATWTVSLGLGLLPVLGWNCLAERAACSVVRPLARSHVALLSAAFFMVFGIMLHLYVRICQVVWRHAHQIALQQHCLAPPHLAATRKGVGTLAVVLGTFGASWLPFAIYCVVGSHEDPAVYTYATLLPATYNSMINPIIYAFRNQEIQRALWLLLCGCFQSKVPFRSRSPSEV
row,Structure (SMILES),"pEC50, in vitro inhibition of cAMP"
1,"COc1ccc(OC(F)(F)F)cc1C(=O)Nc1cc(C#N)ccc1N1CCC(Oc2ccc(F)cc2F)CC1 [Example 231, N-(5-cyano-2-(4-(2,4-difluorophenoxy)piperidin-1-yl)phenyl)-2-methoxy-5-(trifluoromethoxy)benzamide]",6.3
2,"COc1ccc(C(=O)Nc2cc(C#N)ccc2N2CCC(Oc3ccc(F)cc3F)CC2)nc1 [Example 133, N-(5-cyano-2-(4-(2,4-difluorophenoxy)piperidin-1-yl)phenyl)-5-methoxypicolinamide]",7.1
3,"Cc1nnc(C(=O)Nc2cc(C#N)ccc2N2CCC(Oc3ccc(F)cc3F)CC2)o1 [Example 132, N-(5-cyano-2-(4-(2,4-difluorophenoxy)piperidin-1-yl)phenyl)-5-methyl-1,3,4-oxadiazole-2-carboxamide]",5.6
4,"COc1ccnc(C(=O)Nc2cc(C#N)ccc2N2CCC(Oc3ccc(F)cc3F)CC2)c1 [Example 109, N-(5-cyano-2-(4-(2,4-difluorophenoxy)piperidin-1-yl)phenyl)-4-methoxypicolinamide]",6.7
5,"COc1nn(C)cc1C(=O)Nc1cc(C#N)cnc1N1CCN(Cc2c(F)cc(F)cc2F)CC1 [Example 173, N-(5-cyano-2-(4-(2,4,6-trifluorobenzyl)piperazin-1-yl)pyridin-3-yl)-3-methoxy-1-methyl-1H-pyrazole-4-carboxamide]",6.8
6,"Cn1cccc(C(=O)Nc2cc(C#N)ccc2N2CCC(Oc3cc(F)cnc3F)CC2)c1=O [Example 292, N-(5-cyano-2-(4-((2,5-difluoropyridin-3-yl)oxy)piperidin-1-yl)phenyl)-1-methyl-2-oxo-1,2-dihydropyridine-3-carboxamide]",6.6
7,"COc1c(Cl)cccc1C(=O)Nc1cc(C#N)ccc1N1CCC(Oc2ccc(F)cc2F)CC1 [Example 222, 3-chloro-N-(5-cyano-2-(4-(2,4-difluorophenoxy)piperidin-1-yl)phenyl)-2-methoxybenzamide]",6.7
8,"COc1c(Cl)cc(Cl)cc1C(=O)Nc1cc(C#N)ccc1N1CCC(Oc2ccc(F)cc2F)CC1 [Example 234, 3,5-dichloro-N-(5-cyano-2-(4-(2,4-difluorophenoxy)piperidin-1-yl)phenyl)-2-methoxybenzamide]",<4.5
9,"Cc1cc(C(=O)Nc2cc(C#N)ccc2N2CCC(Oc3ccc(F)cc3F)CC2)nn1C [Example 113, N-(5-cyano-2-(4-(2,4-difluorophenoxy)piperidin-1-yl)phenyl)-1,5-dimethyl-1H-pyrazole-3-carboxamide]",6.9
10,N#Cc1cnc(N2CCC(Oc3ccc(F)cc3F)CC2)c(NC(=O)c2cnccc2O)c1 [Example 61],6.4
11,"COc1ncccc1C(=O)Nc1cc(C#N)ccc1N1CCN(C(=O)c2ccc(F)cc2)CC1 [Example 286, N-(5-cyano-2-(4-(4-fluorobenzoyl)piperazin-1-yl)phenyl)-2-methoxynicotinamide]",6.7
12,"N#Cc1cnc(N2CCC(Oc3ccc(F)cc3F)CC2)c(NC(=O)c2cc(Cl)ccn2)c1 [Example 55, 4-chloro-V-(5-cyano-2-(4-(2,4-difluorophenoxy)piperidin-1-yl)pyridin-3-yl)picolinamide]",7.3
13,"COc1nn(C)cc1C(=O)Nc1cc(C#N)cnc1N1CCN(Cc2ccc(OC(F)F)cc2)CC1 [Example 162, N-(5-cyano-2-(4-(4-(difluoromethoxy)benzyl)piperazin-1-yl)pyridin-3-yl)-3-methoxy-1-methyl-1H-pyrazole-4-carboxamide]",6.6
14,"COc1ncc(Cl)cc1C(=O)Nc1cc(C#N)ccc1N1CCC(Oc2ccc(F)cc2F)CC1 [Example 193, 5-chloro-N-(5-cyano-2-(4-(2,4-difluorophenoxy)piperidin-1-yl)phenyl)-2-methoxynicotinamide]",5.9
15,CC(C)c1ccc(C(=O)Nc2cc(C#N)ccc2N2CCC(Oc3ccc(F)cc3F)CC2)c(=O)n1C [Example 186],6.4
16,"CCOc1ncccc1C(=O)Nc1cc(C#N)ccc1N1CCC(Oc2ccc(F)cc2F)CC1 [Example 28, N-(5-cyano-2-(4-(2,4-difluorophenoxy)piperidin-1-yl)phenyl)-2-ethoxynicotinamide]",6.6
17,"Cn1cccc(C(=O)Nc2cc(S(=O)(=O)N3CCOCC3)cnc2N2CCC(Oc3ccc(F)cc3F)CC2)c1=O [Example 279, N-(2-(4-(2,4-difluorophenoxy)piperidin-1-yl)-5-(morpholinosulfonyl)pyridin-3-yl)-1-methyl-2-oxo-1,2-dihydropyridine-3-carboxamide]",7.0
18,"COc1ncccc1C(=O)Nc1cc(C#N)ccc1N1CCN(Cc2cccs2)CC1 [Example 72, N-(5-cyano-2-(4-(thiophen-2-ylmethyl)piperazin-1-yl)phenyl)-2-methoxynicotinamide]",6.6

row,Structure (SMILES),"pEC50, in vitro inhibition of cAMP"
1,"Cn1cccc(C(=O)Nc2cc(S(C)(=O)=O)ccc2N2CCC(Oc3ccc(F)cc3F)CC2)c1=O [Example 3, N-(2-(4-(2,4-difluorophenoxy)piperidin-1-yl)-5-(methylsulfonyl)phenyl)-1-methyl-2-oxo-1,2-dihydropyridine-3-carboxamide]",7.5
2,"O=C(Nc1ccc2nccnc2c1N1CCC(Oc2ccc(F)cc2F)CC1)c1ccccn1 [Example 150, N-(5-(4-(2,4-difluorophenoxy)piperidin-1-yl)quinoxalin-6-yl)picolinamide]",<5.7
3,COc1ncccc1C(=O)Nc1cnc(C(F)(F)F)cc1N1CCC(Oc2ccc(F)cc2F)CC1 [Example 289],6.9
4,"Cn1cccc(C(=O)Nc2cc(C#N)cnc2N2CCC(Oc3ccc(F)cc3F)CC2)c1=O [Example 58, N-(5-cyano-2-(4-(2,4-difluorophenoxy)piperidin-1-yl)pyridin-3-yl)-1-methyl-2-oxo-1,2-dihydropyridine-3-carboxamide]",7.4
5,"COc1cc(C)ccc1C(=O)Nc1cc(C#N)ccc1N1CCC(Oc2ccc(F)cc2F)CC1 [Example 236, N-(5-cyano-2-(4-(2,4-difluorophenoxy)piperidin-1-yl)phenyl)-2-methoxy-4-methylbenzamide]",7.1
6,"CCCNC(=O)c1cc(N2CCC(Oc3ccc(F)cc3F)CC2)c(NC(=O)c2cccnc2OC)cn1 [Example 254, 4-(4-(2,4-difluorophenoxy)piperidin-1-yl)-5-(2-methoxynicotinamido)-N-propylpicolinamide]",7.2
7,"COc1cccc(C(=O)Nc2cc(C#N)ccc2N2CCC(Oc3ccc(F)cc3F)CC2)n1 [Example 175, N-(5-cyano-2-(4-(2,4-difluorophenoxy)piperidin-1-yl)phenyl)-6-methoxypicolinamide]",7.0
8,"COc1ccc(F)cc1CN1CCN(c2ncc(C#N)cc2NC(=O)c2cn(C)nc2OC)CC1 [Example 161, N-(5-cyano-2-(4-(5-fluoro-2-methoxybenzyl)piperazin-1-yl)pyridin-3-yl)-3-methoxy-1-methyl-1H-pyrazole-4-carboxamide]",6.5
9,"COc1ncccc1C(=O)Nc1cc(C#N)ccc1N1CCN(Cc2ccccc2F)CC1 [Example 239, N-(5-cyano-2-(4-(2-fluorobenzyl)piperazin-1-yl)phenyl)-2-methoxynicotinamide]",6.9
10,"COc1c(F)ccc(F)c1C(=O)Nc1cc(C#N)ccc1N1CCC(Oc2ccc(F)cc2F)CC1 [Example 189, N-(5-cyano-2-(4-(2,4-difluorophenoxy)piperidin-1-yl)phenyl)-3,6-difluoro-2-methoxybenzamide]",5.8
11,"COc1nn(C)cc1C(=O)Nc1cc(C#N)cnc1N1CCN(Cc2ccc(OC(F)(F)F)cc2)CC1 [Example 166, N-(5-cyano-2-(4-(4-(trifluoromethoxy)benzyl)piperazin-1-yl)pyridin-3-yl)-3-methoxy-1-methyl-1H-pyrazole-4-carboxamide]",6.1
12,"COc1ncccc1C(=O)Nc1cc(S(C)(=O)=O)ccc1N1CCC(Oc2ccc(F)cc2F)CC1 [Example 5, N-(2-(4-(2,4-difluorophenoxy)piperidin-1-yl)-5-(methylsulfonyl)phenyl)-2-methoxynicotinamide]",7.4
13,"COCc1cnc(N2CCN(Cc3ccc(F)cc3F)CC2)c(NC(=O)c2cccnc2OC)c1 [Example 33, N-(2-(4-(2,4-difluorobenzyl)piperazin-1-yl)-5-(methoxymethyl)pyridin-3-yl)-2-methoxynicotinamide]",7.2
14,Cc1ccc2ncc(C(=O)Nc3cc(C#N)ccc3N3CCC(Oc4ccc(F)cc4F)CC3)c(=O)n2c1 [Example 201],6.8
15,"N#Cc1ccc(N2CCC(Oc3ccc(F)cc3F)CC2)c(NC(=O)c2cc3n(n2)CCC3)c1 [Example 107, N-(5-cyano-2-(4-(2,4-difluorophenoxy)piperidin-1-yl)phenyl)-5,6-dihydro-4H-pyrrolo[1,2-b]pyrazole-2-carboxamide]",6.6
16,CCn1c(C)cc(C)c(C(=O)Nc2cc(C#N)ccc2N2CCC(Oc3ccc(F)cc3F)CC2)c1=O [Example 202],6.3
17,"O=C(Nc1ccccc1N1CCN(C(=O)c2ccc(Cl)cc2)CC1)c1ccncn1 [Example 259, N-(2-(4-(4-chlorobenzoyl)piperazin-1-yl)phenyl)pyrimidine-4-carboxamide]",5.3
18,"Cn1cccc(C(=O)Nc2cc(C#N)ccc2N2CCC(C(F)(F)c3cc(Cl)ccc3F)CC2)c1=O [Example 89, N-(2-(4-((5-chloro-2-fluorophenyl)difluoromethyl)piperidin-1-yl)-5-cyanophenyl)-1-methyl-2-oxo-1,2-dihydropyridine-3-carboxamide]",6.3
